Key:
E. coli O0157:H7 EDL 933 = assay: Bacterial count in whey powder paste inoculated with E. coli O157:H7, with LAE added; type: cell-based, Escherichia coli O157:H7; settings: whey powder paste pH 6.1-6.2; for bacterial count after 48 h as % of the value on addition: 800 mg of LAE/kg, 48 h storage at room temperature; for change of bacterial count versus control sample without LAE: LAE 200, 400 and 800 mg/kg, after 24 h, continued with longer storage at room temperature
Experimental: (§1) The invention is described in more detail by the examples below. In these examples partially desugared whey powder is used, a constituent of many feedstuffs which was set to the pH range of 6.1-6.2 which is favorable for the growth of many bacteria. The whey powder was made into a paste using aqueous buffer solution, so that together with the bacterial suspension in physiological saline a ratio of whey powder to water of approximately 2:1 resulted. LAE was added to the samples at concentrations of 200, 400 and 800 mg/kg, while a control sample received no addition. The bacterial count was determined in a conventional manner in the resultant pastes immediately after their preparation, after 24 h and after 48 h of storage at room temperature.
Effect on Escherichia coli O157:H7 (approximately 6×10^5/g)
A paste of whey powder prepared in the manner described was inoculated with approximately 6×10^5/g of E. coli O0157:H7 EDL 933. […] At an addition of 800 mg of LAE/kg, the bacterial count after 48 h was less than 10% of the value on addition.
Effect on Escherichia coli O157:H7 (approximately 3×1 0^3/g)
A paste of whey powder prepared in the manner described was inoculated with approximately 3×10^3/g of E. coli O0157:H7 EDL 933. […] At an addition of 800 mg of LAE/kg, the bacterial count after 48 h was less than 10% of the value on addition.

[1] = system: L. monocytogenes ATCC 13311; assay: Bacterial count in whey powder paste inoculated with Listeria monocytogenes, with LAE added; type: cell-based; settings: whey powder paste pH 6.1-6.2; for bacterial count after 48 h as % of the value on addition: 800 mg of LAE/kg, 48 h storage at room temperature; for change of bacterial count versus control sample without LAE: LAE 200, 400 and 800 mg/kg, after 24 h, continued with longer storage at room temperature
Experimental: as §1
Effect on Listeria monocytogenes (approximately 5×10^5/g)
A paste of whey powder prepared in the manner described was inoculated with approximately 5×10^5/g L. monocytogenes ATCC 13311. […] At an addition of 800 mg of LAE/kg, the bacterial count after 48 h was approximately 15% of the value on addition.
Effect on Listeria monocytogenes (approximately 2×10^3/g)
A paste of whey powder prepared in the manner described was inoculated with approximately 2×10^3/g L. monocytogenes ATCC 13311. […] At an addition of 800 mg of LAE/kg, the bacterial count after 48 h was less than 20% of the value on addition.

[2] = system: S. typhimurium NCTC 10527; assay: Bacterial count in whey powder paste inoculated with Salmonella typhimurium, with LAE added; type: cell-based; settings: inoculum approximately 3×10^4/g, whey powder paste pH 6.1-6.2
Experimental: as §1
Effect on Salmonella typhimurium (approximately 3×10^4/g)
A paste of whey powder prepared in the manner described was inoculated with approximately 3×10^4/g S. typhimurium NCTC 10527.

[3] = inoculum approximately 3×10^3/g
[4] = inoculum approximately 6×10^5/g
[5] = inoculum approximately 2×10^3/g
[6] = inoculum approximately 5×10^5/g

`CCCCCCCCCCCC(=O)N[C@@H](CCCNC(=N)N)C(=O)OCC` [LAE, lauroylarginine ethyl ester] was tested, and the “bacterial count after 48 h as % of the value on addition” value (“bacterial count after 48 h as %” for short) (E. coli O0157:H7 EDL 933; [3]) was “less than 10%”, the “change of bacterial count versus control sample without LAE” value (E. coli O0157:H7 EDL 933; [3]) was “much more marked concentration-dependent decrease” and the “bacterial count after 48 h as %” value (E. coli O0157:H7 EDL 933; [4]) was “less than 10%”. For the same molecule, the “change of bacterial count versus control sample without LAE” value (E. coli O0157:H7 EDL 933; [4]) was “marked concentration-dependent decrease”, the “bacterial count after 48 h as %” value [1, 5] was “less than 20%” and the “change of bacterial count versus control sample without LAE” value [1, 5] was “more marked concentration-dependent decrease”. For the same molecule, the “bacterial count after 48 h as %” value [1, 6] was “approximately 15%”, the “change of bacterial count versus control sample without LAE” value [1, 6] was “more marked concentration-dependent decrease” and the “detectability of test bacteria after 48 h” value ([2]; 800 mg of LAE/kg, 48 h storage at room temperature) was “no longer detectable”. For the same molecule, the “change of bacterial count versus control sample without LAE” value ([2]; LAE 200, 400 and 800 mg/kg, after 24 h, continued with longer storage at room temperature) was “much more marked concentration-dependent decrease”.

From US20030049305A1, “Preserved feedstuffs and process for their production” (priority 2001, published 2003)
